Source: patent US4450160A, “1,2-Dihydropyrido[3,4-b]-pyrazines and method and intermediates for preparing same” (Southern Research Institute, priority 1982, dated 1984)
Blank lines part the entries; values can stand above or below the compound they belong to.

Legend:
leukemia L1210 = conditions: mouse, in vivo; cited from earlier work
KB cell culture = conditions: abstract, Gatlinburg 1976; cited from earlier work
[1] = test system: Lymphocytic leukemia P388; assay: P388 lymphocytic leukemia, 10^6 tumor cell implant, i.p., % ILS; assay type: in vivo, mice
Description: (d) Lymphocytic leukemia p388. Geran, R. I., Greenberg, N. H., MacDonald,
M. M., Schulacker, A. M., Abott, B. J., Cancer Chemother. Rep., 1972, Par

[2] = test system: lymphoid leukemia L1210 cells; assay: inhibition of proliferation of cultured lymphoid leukemia L1210 cells; assay type: cell-based; conditions: Mus musculus, concentration that inhibits proliferation to 50% of control growth, 24 hours, (g) = average of 2 determinations, read-out: L1210 ID50
Description: (b) Concentration of agent that inhibits proliferation of cultured lymphoi
leukemia L1210 cells to 50% control growth.

[3] = test system: cultured lymphoid leukemia L1210 cells; assay: Mitotic Index, fraction of cultured L1210 cells in mitoses (metaphase); assay type: cell-based
[4] = test system: P388 cells that were resistant to vincristine; assay: vincristine-resistant line of P388 in mice; assay type: in vivo
Description: (h) Vincristineresistant line of P388. Wilkoff, L. J. and Dulmadge, E. A.,

Botrytis cinereae = assay: antifungal activity; assay type: cell-based
Description: (§1) The 1,2-dihydropyrido[3,4-b]pyrazines at concentrations that prevented any increase in the cell number during a 24 hour period had little effect upon the synthesis of DNA, RNA, and protein by cultured L1210 cells during exposure for four hours. […] Exposure of cultured L1210 cells to the 1,2-dihydropyrido[3,4-b]pyrazines inhibited cell division as measured by the mitotic index (MI) (Table V), which is the fraction of the cell population that is made up of metaphase cells. […] For example, 5-amino-1,2-dihydro-3-phenylpyrido[3,4-b]pyrazin-7-ylcarbamate was active against Saccharomyces cerevisiae, Asperigillus niger, Penicillium italicum and Botrytis cinereae.

Penicillium italicum = assay: antifungal activity; assay type: cell-based
Description: as §1

Saccharomyces cerevisiae = assay: antifungal activity; assay type: cell-based
Description: as §1

Asperigillus niger = assay: antifungal activity; assay type: cell-based
Description: as §1

[5] = Mus musculus, P388, ip, i.p. implant, days 1-5
[6] = Mus musculus, P388, ip, i.p. implant, days 1-5, 10 mg/kg
[7] = Mus musculus, P388, ip, i.p. implant, days 1-9
[8] = Mus musculus, P388, ip, 24 h, i.p. implant, day 1

SMILES: CCOC(=O)Nc1cc2c(c(N)n1)N=C(CN(C)c1ccc(C(=O)OC)cc1)CN2
- activity against leukemia L1210 in mice (leukemia L1210): activity against leukemia L1210 in mice
- cytotoxicity in the KB cell culture screen (KB cell culture): showed cytotoxicity

SMILES: CCOC(=O)Nc1cc2c(c(N)n1)N=C(c1ccc(C)cc1C)CN2 [2,4-(CH3)2 C6 H3]
- ILS at 20 mg/kg ([1]; Mus musculus, P388, ip, i.p. implant, days 1-5, 20 mg/kg (highest dose tested)): 23%
- IC50 [2]: 42 nM
- Mitotic Index 12h ([3]; 0.1 μM): 0.66

SMILES: CCOC(=O)Nc1cc2c(c(N)n1)N=C(c1ccc(Cl)cc1Cl)CN2 [2,4-Cl2 C6 H3]
- ILS at 12.5 mg/kg [1, 5]: 49%
- IC50 [2]: 44 nM
- Mitotic Index 24h ([3]; 0.3 μM): 0.20

SMILES: CCOC(=O)Nc1cc2c(c(N)n1)N=C(c1ccc3ccccc3c1)CN2 [2-C10 H7]
- ILS at 5 mg/kg ([1]; Mus musculus, P388, ip, i.p. implant, days 1-5, 5 mg/kg): 53%
- ILS at 10 mg/kg [1, 6]: 66%
- 30th-day survivor ([1]; days 1-5, 10 mg/kg): One
- IC50 [2]: 6 nM
- Mitotic Index 12h ([3]; 0.03 μM): 0.60

SMILES: CCOC(=O)Nc1cc2c(c(N)n1)N=C(c1cc(OC)c(OC)c(OC)c1)CN2 [3,4,5-(CH3 O)3 C6 H2]
- Mitotic Index 12h ([3]; 0.3 μM): 0.41

SMILES: CCOC(=O)Nc1cc2c(c(N)n1)N=C(c1ccc(C)c(C)c1)CN2 [3,4-(CH3)2 C 6 H3]
- ILS at 12.5 mg/kg [1, 5]: 44%
- IC50 [2]: 138 nM
- Mitotic Index 24h ([3]; 0.3 μM): 0.16

SMILES: CCOC(=O)Nc1cc2c(c(N)n1)N=C(c1ccc(Cl)c(Cl)c1)CN2 [3,4-Cl2 C6 H3]
- ILS at 10 mg/kg [1, 6]: 58%
- IC50 [2]: 18 nM
- Mitotic Index 12h ([3]; 0.01 μM): 0.69
- Mitotic Index 12h ([3]; 0.03 μM): 0.53

- IC50 [2]: 1.22 nM
SMILES: CCOC(=O)Nc1cc2c(c(N)n1)N=C(c1cccc(OC)c1)CN2 [3-CH3 OC6 H4]
- Mitotic Index 12h ([3]; 0.003 μM): 0.56

SMILES: CCOC(=O)Nc1cc2c(c(N)n1)N=C(c1ccc(C(F)(F)F)cc1)CN2 [4-CF3 C6 H4, ethyl 5-amino-1,2-dihydro-3-[4'-(trifluoromethyl)phenyl]pyrido[3,4-b]pyrazin-7-ylcarbamate]
- ILS at 90 mg/kg ([1]; Mus musculus, P388, ip, 24 h, i.p. implant, day 1, 90 mg/kg (highest dose tested)): 0%
- ILS at 30 mg/kg ([1]; Mus musculus, P388, ip, i.p. implant, days 1,5,9, 30 mg/kg (highest dose tested)): 0%
- ILS at 50 mg/kg [1, 7]: 17%
- IC50 [2]: 150 nM
- Mitotic Index 24h ([3]; 0.3 μM): 0.01

- IC50 [2]: 24 nM
SMILES: CCOC(=O)Nc1cc2c(c(N)n1)N=C(c1ccc(C)cc1)CN2 [4-CH3 C6 H4]
- ILS at 12 mg/kg ([1]; Mus musculus, P388, ip, i.p. implant, days 1-5, 12 mg/kg): 30%
- Mitotic Index 24h ([3]; 0.3 μM): 0.22

SMILES: CCOC(=O)Nc1cc2c(c(N)n1)N=C(c1ccc(OC)cc1)CN2 [4-CH3 OC6 H4]
- ILS at 25 mg/kg [1, 8]: 50%
- ILS at 25 mg/kg ([1]; Mus musculus, P388, ip, i.p. implant, days 1,5,9): 63%
- ILS at 3 mg/kg [1, 7]: 35%
- IC50 [2]: 4.1 nM
- Mitotic Index 24h ([3]; 0.3 μM): 0.27

SMILES: CCOC(=O)Nc1cc2c(c(N)n1)N=C(c1ccc(F)cc1)CN2 [4-FC6 H4]
- ILS at 3 mg/kg [1, 5]: 49%
- IC50 [2]: 6.8 nM
- Mitotic Index 12h ([3]; 0.01 μM): 0.47

SMILES: CCOC(=O)Nc1cc2c(c(N)n1)N=C(c1ccc(N)cc1)CN2 [4-H2 NC6 H4]
- ILS at 50 mg/kg [1, 8]: 35%
- IC50 [2]: 23 nM
- Mitotic Index 24h ([3]; 0.3 μM): 0.19

SMILES: CCOC(=O)Nc1cc2c(c(N)n1)N=C(c1ccccc1)CN2 [C6 H5, Ethyl 5-Amino-1,2-dihydro-3-phenylpyrido(3,4-b)pyrazin-7-ylcarbamate]
- ILS at 12.5 mg/kg ([1]; Mus musculus, P388, ip, 24 h, i.p. implant, day 1, average of 2 determinations): 55%
- ILS at 4.5 mg/kg ([1]; Mus musculus, P388, ip, i.p. implant, days 1,5,9, 4.5 mg/kg): 42%
- ILS at 2 mg/kg ([1]; Mus musculus, P388, ip, i.p. implant, days 1-9, 2 mg/kg): 51%
- IC50 [2]: 4.7 nM
- activity against P388 cells resistant to vincristine (in words) ([4]; in mice): active in mice against P388 cells that were resistant to vincristine
- P388 % ILS ([4]; vincristine-resistant line of P388, day 1, 12 mg/kg): 50%
- antifungal activity (Botrytis cinereae): active
- antifungal activity (Penicillium italicum): active
- antifungal activity (Saccharomyces cerevisiae): active
- antifungal activity (Asperigillus niger): active
- Mitotic Index 12h ([3]; 0.03 μM): 0.65
- Mitotic Index 24h ([3]; 0.3 μM): 0.54

- IC50 [2]: 160 nM
SMILES: CCOC(=O)Nc1cc2c(c(N)n1)N=C(c1ccccc1)CN2C [C6 H5, R3 = CH3]
- ILS at 100 mg/kg ([1]; Mus musculus, P388, ip, 24 h, i.p. implant, day 1, 100 mg/kg): 12%
- Mitotic Index 12h ([3]; 0.3 μM): 0.68

- IC50 [2]: 0.51 nM
SMILES: CCOC(=O)Nc1cc2c(c(N)n1)N=C(c1ccccc1)C(C)N2 (centres unmarked) [C6 H5, R4 = CH3]
- Mitotic Index 12h ([3]; 0.003 μM): 0.69

SMILES: COC(=O)Nc1nc2ccc(C(=O)c3cccs3)cc2[nH]1 [Nocodazole, reference compound]
- IC50 [2]: 27 nM
- Mitotic Index 24h ([3]; 0.3 μM): 0.19

SMILES: CC[C@]1(O)C[C@H]2CN(CCc3c([nH]c4ccccc34)[C@@](C(=O)OC)(c3cc4c(cc3OC)N(C=O)[C@H]3[C@@](O)(C(=O)OC)[C@H](OC(C)=O)[C@]5(CC)C=CCN6CC[C@]43[C@@H]65)C2)C1 [Vincristine, reference compound]
- ILS at 2.7 mg/kg ([1]; Mus musculus, P388, ip, 24 h, i.p. implant, day 1, 2.7 mg/kg): 100%
- ILS at 1.3 mg/kg ([1]; Mus musculus, P388, ip, i.p. implant, days 1,5,9, 1.3 mg/kg): 181%
- ILS at 0.33 mg/kg ([1]; Mus musculus, P388, ip, i.p. implant, days 1-9, 0.33 mg/kg): 145%
- 40th-day survivors ([1]; day 1, 2.7 mg/kg): Two
- 40th-day survivors ([1]; days 1,5,9, 1.3 mg/kg): Three
- 40th-day survivors ([1]; days 1-9, 0.33 mg/kg): Three
- IC50 [2]: < 1 nM
